Numbered stars: 1 amine (or outer) side, 2 acyl side, 3 side chain; on linkers, the order of the positions; unused ones are H or OH. Bridge positions count the residues as written; N and C are the ends. Square brackets hold non-standard residues; d marks the D form. Peptide text beside a SMILES is read from it. * marks the point of attachment. Adda = CO[C@@H](Cc1ccccc1)[C@@H](C)/C=C(C)/C=C/[C@H](N[*:1])[C@H](C)C(=O)[*:2]; dAsp(3S-Me) = C[C@H](C(=O)[*:3])[C@@H](N[*:1])C(=O)[*:2]; d(γGlu) = O=C(O)[C@@H](CCC(=O)[*:2])N[*:1]; NMeDha = C=C(NC)C(=O)O; Propargyl = C#CC*
What was measured:
[1] = molecular target: type 1 protein phosphatase; conditions: cited from earlier work
[2] = molecular target: type 2A protein phosphatase; conditions: cited from earlier work
[3] = molecular target: protein phosphatase-1 catalytic subunit (a-Isoform from rabbit, Sigma-Aldrich) (Oryctolagus cuniculus, UniProt P62139)
OATP1B1 = test: in vitro; conditions: human
OATP1B3 = test: in vitro; conditions: human

Sequence of protein phosphatase-1 catalytic subunit (a-Isoform from rabbit, Sigma-Aldrich) (P62139 whole entry, looked up, canonical isoform): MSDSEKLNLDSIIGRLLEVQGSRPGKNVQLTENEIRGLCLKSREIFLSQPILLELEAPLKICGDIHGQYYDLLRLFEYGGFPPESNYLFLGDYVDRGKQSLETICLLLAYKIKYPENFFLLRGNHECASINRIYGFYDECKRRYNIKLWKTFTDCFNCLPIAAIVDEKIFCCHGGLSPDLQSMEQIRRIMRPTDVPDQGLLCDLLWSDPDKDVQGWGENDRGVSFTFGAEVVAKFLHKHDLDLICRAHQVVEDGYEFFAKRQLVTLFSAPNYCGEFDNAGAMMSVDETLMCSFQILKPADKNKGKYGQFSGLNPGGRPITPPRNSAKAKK

| Compound | Ratio of IC50_OATP1B1/ IC50_PPI (HEK293 OATP1B1+) | IC50 (HEK293 OATP1B1+; read-out: IC50_OATP1B1 ± SE) [nM] | Ratio of IC50_OATP1B3/ IC50_PPI (HEK293 OATP1B3+) | IC50 (HEK293 OATP1B3+; read-out: IC50_OATP1B3 ± SE) [nM] | IC50 [1] [nM] | IC50 [2] [nM] | increase of IC50_OATP1B1 compared to the corresponding MC-PrgTyr-Arg monomer (HEK293 OATP1B1+) | increase of IC50_OATP1B1 in comparison to MC-LR (HEK293 OATP1B1+) | increase of IC50_OATP1B3 compared to the MC-PrgTyr-Arg monomer (HEK293 OATP1B3+) [fold] | increase of IC50_OATP1B3 in comparison to MC-LR (HEK293 OATP1B3+) [fold] | lower IC50_PPI compared to the IC50_PPI of the MC-LR reference cytotoxin [3] | lower IC50_PPI compared to the IC50_PPI of the corresponding MC-PrgTyr-Arg monomer [3] | IC50 (OATP1B1) [nM] | IC50 (OATP1B3) [nM] |
| --- | --- | --- | --- | --- | --- | --- | --- | --- | --- | --- | --- | --- | --- | --- |
| C=C1C(=O)N[C@H](C)C(=O)N[C@@H](CC(C)C)C(=O)N[C@@H](C(=O)O)[C@H](C)C(=O)N[C@@H](CCCNC(=N)N)C(=O)N[C@@H](/C=C/C(C)=C/[C@H](C)[C@H](Cc2ccccc2)OC)[C@H](C)C(=O)N[C@@H](C(=O)O)CCC(=O)N1C [MC-LR, microcystin-LR, reference compound] (R[Adda][d(γGlu)][NMeDha][dA]L[dAsp(3S-Me)]-OH; lactam N-7) | 6.3 | 17.1 ± 2.1 | 2.9 | 7.9 ± 1.7 | 0.03 | 0.04 | – | – | – | – | – | – | – | – |
| C=C1C(=O)N[C@H](C)C(=O)N[C@@H](Cc2ccc(OCc3cn(CC(=O)N4CCN(C(=O)Cn5cc(COc6ccc(C[C@@H]7NC(=O)[C@@H](C)NC(=O)C(=C)N(C)C(=O)CC[C@H](C(=O)O)NC(=O)[C@@H](C)[C@H](/C=C/C(C)=C/[C@H](C)[C@H](Cc8ccccc8)OC)NC(=O)[C@H](CCCNC(=N)N)NC(=O)[C@@H](C)[C@H](C(=O)O)NC7=O)cc6)nn5)CC4)nn3)cc2)C(=O)N[C@@H](C(=O)O)[C@H](C)C(=O)N[C@@H](CCCNC(=N)N)C(=O)N[C@@H](/C=C/C(C)=C/[C@H](C)[C@H](Cc2ccccc2)OC)[C@H](C)C(=O)N[C@@H](C(=O)O)CCC(=O)N1C [MC-PrgTyr-Arg-Dimer-1] | – | – | – | – | – | – | 24 fold | more than 116 fold | 26 | 134 | about 10 fold | more than 20 fold | 2000 ± 711 | 1060 ± 302 |
| C#CCOc1ccc(C[C@@H]2NC(=O)[C@@H](C)NC(=O)C(=C)N(C)C(=O)CC[C@H](C(=O)O)NC(=O)[C@@H](C)[C@H](/C=C/C(C)=C/[C@H](C)[C@H](Cc3ccccc3)OC)NC(=O)[C@H](CCCNC(=N)N)NC(=O)[C@@H](C)[C@H](C(=O)O)NC2=O)cc1 [MC-PrgTyr-Arg, cyclo(D-Ala-PrgTyr-D-MeAsp-Arg-Adda-D-Glu-Mdha), reference compound] (R[Adda][d(γGlu)][NMeDha][dA]Y(Propargyl)[dAsp(3S-Me)]-OH; lactam N-7) | – | – | – | – | – | – | – | – | – | – | – | – | 82.2 ± 4.5 | 40.4 ± 36.6 |
| C=C1C(=O)N[C@H](C)C(=O)N[C@@H](Cc2ccc(OCc3cn(CC(=O)N4CCN(C(=O)[C@H](CCCCN)n5cc(COc6ccc(C[C@@H]7NC(=O)[C@@H](C)NC(=O)C(=C)N(C)C(=O)CC[C@H](C(=O)O)NC(=O)[C@@H](C)[C@H](/C=C/C(C)=C/[C@H](C)[C@H](Cc8ccccc8)OC)NC(=O)[C@H](CCCNC(=N)N)NC(=O)[C@@H](C)[C@H](C(=O)O)NC7=O)cc6)nn5)CC4)nn3)cc2)C(=O)N[C@@H](C(=O)O)[C@H](C)C(=O)N[C@@H](CCCNC(=N)N)C(=O)N[C@@H](/C=C/C(C)=C/[C@H](C)[C@H](Cc2ccccc2)OC)[C@H](C)C(=O)N[C@@H](C(=O)O)CCC(=O)N1C [MC-PrgTyr-Arg-Dimer-2] | – | – | – | – | – | – | more than 36 fold | more than 175 fold | 45 | 234 | about 16 fold | more than 50 fold | > 3000 | 1850 ± 309 |

From EP4494656A1 (priority 2023, dated 2025)
